Key:
FaDu cells [1] = test: Hypoxic cytotoxicity of ACN, colony formation assay; assay type: cell-based, human; conditions: concentrations up to 100 μM, 24 h, normoxia (20% O2) or hypoxia (1% O2 and <0.1% O2)
Protocol: (§1) Human head and neck squamous cell carcinoma cell line, FaDu, was purchased from American Type Culture Collection (ATCC HTB-43). FaDu cells were cultured in Dulbecco's Modified Eagle's medium/Nutrient Mixture F-12 media supplemented with 10% Fetal bovine serum, 2 mM L-glutamine and 10% Penicillin Streptomycin. Cells were cultured in a humidified incubator at 37° C. with 5% CO2.
(§2) Hypoxic cytotoxicity of ACN was evaluated using colony formation assay. FaDu cells were seeded on 60 mm glass petri dishes (in triplicates) at a density of 300 cells per plate. Cells were allowed to attach for 24 hours, followed by treatment with 1 μM, 10 μM and 100 μM of freshly dissolved ACN for 24 hours under normoxia (20% O2) or hypoxia (1% O2 and <0.1% O2); 100 μM DMSO was used as vehicle control. Cells were allowed to grow and form colonies for 14 days. Colonies were stained with crystal violet, counted and plotted as percentage of vehicle conditions; error bars show standard error of the means. […] Colonies were stained with crystal violet, counted and plotted as percentage of vehicle (DMSO) controls; error bars represent standard error of the means. […] 1 hr following IR, cells were trypsinized, counted, and seeded on 24 well plates in triplicates at a density of 50,000 cells per well. Cells were trypsinized 1, 3, 5 and 7 days after re-plating, and counted with a Z2 coulter particle counter.

FaDu cells [2] = test: Radiosensitization potential of ACN, colony formation assay with 5 Gy IR; assay type: cell-based, human; conditions: 100 μM ACN and 5 Gy IR, normoxia or hypoxia (<0.1% O2)
Protocol: as §1, §2

FaDu cells [3] = test: Cell proliferation assay (cell counts); assay type: cell-based, human; conditions: 100 μM, alone or in combination with 5 Gy IR
Protocol: as §1, §2

FaDu cells [4] = test: In vitro inverse oxygen dependent entrapment of ACN, click chemistry fluorescence; assay type: cell-based, human
Protocol: The Click-IT reaction cocktail (Molecular Probes) was made up according to the manufacturer's directions using a 1:5000 dilution of the 2 mg/ml Alexafluor 555 or 594 conjugated alkyne stock (Molecular Probes). The reaction cocktail was used within 15 minutes of preparation. All reactions were done at room temperature in the dark.
Subconfluent FaDu cells were trypsinized, and approximately 3-5×10^5 cells were seeded in 35 mm tissue culture plates containing sterilized […] glass coverslips. Cells were allowed to grow overnight, and treated with different concentrations of ACN (1 μM, 10 μM and 100 μM) under normoxia (20% Oxygen), hypoxia (1% Oxygen) or anoxia (0% Oxygen) for 6 hours. Hypoxia and anoxia were achieved using an in house de-gassing system. Post-treatment, all steps were carried out at room temperature. Cells were washed three to five times with 1×PBS, fixed in 2% paraformaldehyde (PFA) for 20 minutes, and washed again three times with 1×PBS. The fixed cells were then blocked and permeabilized with 1% BSA in 1×PBS containing 0.1% Triton-100 for 20 minutes, followed by incubation with click cocktail containing Alexafluor 594 conjugated alkyne for 30 minutes. Subsequently cells were washed and stained with Hoechst 33342 (1:10000 dilution in PBS, Life Technologies) for 5 minutes before mounting them on glass slides (Fluoroshield Mounting Medium, abcam). The prepared slides were kept at 4° C. until imaged. Images were obtained by with a Plan-Apochromat 40X/1.3 Oil DIC lens on a Zeiss 710 confocal microscope using Zen 2011 software.

FaDu cells [5] = test: Comparison of hypoxia selective uptake of ACN and Pimonidazole in vitro; assay type: cell-based, human
Protocol: FaDu cells were grown on coverslips (as described above) and treated simultaneously with 100 μM ACN and 100 μM Pimonidazole. The cells were subsequently exposed to normoxic (20% Oxygen), hypoxic (1% Oxygen) or anoxic (0% Oxygen) conditions for 6 hours, and fixed in 2% PFA. Standard Pimonidazole IHC was performed as described elsewhere using an Alexafluor 647 labelled secondary antibody. Click chemistry was performed as previously described using an Alexafluor 555 conjugated alkyne followed by nuclear staining with Hoechst. Mounted coverslips on glass slides were imaged as described earlier.

FaDu cells [6] = test: Retention profile of ACN in hypoxic cells following re-oxygenation; assay type: cell-based, human; conditions: 100 μM
Protocol: After bioreductive activation under hypoxia, nitroimidazole reactive species (nitroradical anion) bind to cellular nucleophiles to form drug-protein adducts. To evaluate how fast these adducts are metabolized, we treated FaDu cells with 100 μM of ACN under normoxia or anoxia for 6 hours, and exposed them to subsequent re-oxygenation. Cells were fixed after 0 hr, 1 hr, 3 hr, 6 hr and 18 hr of re-oxygenation. Click chemistry was performed on fixed cells as previously described.

FaDu xenograft tumors = test: Assessment of ACN as a hypoxia tracer in tumor-bearing mice; assay type: in vivo, BALB/c nude mice; conditions: 80 mg/Kg intraperitoneally, 2 hours post-injection
Protocol: Female BALB/c nude mice (Charles River Laboratories) aged 6 weeks were used and cared for according to the CCAC guidelines. We used a biflanked sub-cutaneous tumor model where the tumor in the left flank was untreated (control) and the tumor in the right flank served as the ‘treatment’ group. We subcutaneously injected 6×10^6 FaDu cells in 0.1 ml of sterile 0.9% NaCl into the upper right flank to form palpable tumors. The tumors were measured daily until the volume reached 10 mm3. The mice were divided into 4 groups and injected intraperitoneally in 0.15 ml 0.9% saline with: 1-80 mg/Kg ACN, 2-80 mg/Kg pimonidazole (Hypoxyprobe), 3-80 mg/Kg ACN:pimonidazole in a 1:1 ratio and 4-0.9% saline control. Mice were sacrificed 2 hours post-injection, tumors removed and frozen in OCT. Seven micron serial sections were taken of each tumor, dried and stored at −80° C.
Tissue sections were air dried for 25 minutes, fixed for 5 minutes in −20° C. acetone; air dried 25 minutes and blocked in PBS with 1% BSA for 20 minutes. Sections were incubated with primary antibodies for small vessel endothelium [1:100 rabbit anti-CD34 (abcam)] or hypoxia [1:100 rabbit anti-pimonidazole Hypoxyprobe)] for 2 hours at room temperature, followed by 3 five minute washes in 1×PBS. […]

[N-]=[N+]=NCC1OC(n2ccnc2[N+](=O)[O-])[C@H](O)[C@H]1O (some centres unmarked) [ACN, 5’-azido-arabinofuranosyl-2-nitroimidazole]
hypoxia-selective cytotoxicity (colony formation) (FaDu cells [1]): did not show any hypoxia-selective cytotoxicity | hypoxic radiosensitization (colony formation) (FaDu cells [2]): No hypoxic radiosensitization was observed | cell counts compared to vehicle control (FaDu cells [3]): did not generate significant difference in cell counts | entrapment in cells versus oxygen level (click signal) (FaDu cells [4]; 1, 10, 100 μM, 6 h, normoxia, hypoxia, <0.1% O2): entrapped in FaDu cells in an inverse oxygen dependent manner | dose dependence of entrapment in hypoxic cells (FaDu cells [4]; 1-100 μM, hypoxic cells): dose dependent manner | entrapment in well oxygenated or normoxic cells (FaDu cells [4]; normoxia (20% Oxygen)): minimal to almost no entrapment | staining detected by oxygen condition (FaDu cells [5]; 100 μM of each compound, 6 h): detected in oxygen deprived cells | sub-cellular distribution of signal (FaDu cells [5]; hypoxic <0.1% O2 cells, 100 μM): higher nuclear signal | time after re-oxygenation up to which signal for ACN-protein adducts could be detected (FaDu cells [6]; 6 h anoxia then re-oxygenation): up to 6 hours | signal after 18 hours re-oxygenation (FaDu cells [6]; 18 hours re-oxygenation): very faint signal | localization in tumor sections (FaDu xenograft tumors): co-localizes in hypoxic regions of FaDu xenograft tumors

From patent US12600742B2, “Markers, conjugates, compositions and methods for hypoxia imaging, mapping, and therapy” (WWIKY BIOSCIENCES INC., priority 2017, dated 2026)
